Read-outs that look alike come from different tables or passages of the source.
Experiments:
[1] = system: Leishmania donovani axenic amastigote parasites; experiment: Leishmania donovani axenic amastigote proliferation assay; format: cell-based; conditions: read-out: L. donovani amastigotes EC50
Procedure, shortened: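 EC50 values come from CellTiter-Glo luminescence after 2-day compound exposure of axenic amastigotes (9600 per well) at 37 °C, 5% CO2. Medium: RPMI 1640, 20% heat-inactivated FBS, folic acid, adenosine, D-glucose, 25 mM MES, adjusted to pH 5.5.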

[2] = system: L. donovani HU3 strain in mouse peritoneal macrophages; experiment: Assay for proliferation of Leishmania parasites in mouse peritoneal macrophages; format: cell-based, Leishmania donovani; conditions: Leishmania donovani, Peritoneal macrophage
Procedure, shortened: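 EC50 derives from counting SYBR Green-stained parasite nuclei by high-content imaging after 5 days' compound exposure. Host cells were uninfected BALB/c peritoneal macrophages, infected for 24 h before dosing with spleen-derived L. donovani HU3 parasites from mice infected 9–11 weeks.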

[3] = read-out: L. donavani Macrophage EC50
[4] = read-out: L. donavani Macrophage EC50 (μM)

Q: Which results are given for CNc1ccc(-c2cnc3nc(-c4cc(NC(=O)Nc5ccc(C(F)(F)F)cc5)ccc4F)oc3c2)cc1 [Compound 393]?
A: EC50 ([1]; axenic amastigotes in vitro): > 12.5 µM; EC50 [2, 3]: > 50 µM

Q: For Cc1n[nH]cc1-c1cnc2nc(-c3cc(NC(=O)Nc4ccc(C(F)(F)F)cc4)ccc3F)oc2c1 [Compound 394], which EC50 ([1]; axenic amastigotes in vitro) is on record?
A: 11.7 µM

Q: And the EC50 [2, 3]?
A: 4.8 µM

Q: Which results are given for O=C(Nc1ccc(C(F)(F)F)cc1)Nc1ccc(F)c(-c2nc3ncc(-c4ccc(CN5CCOCC5)cc4)cc3o2)c1 [Compound 395]?
A: EC50 ([1]; axenic amastigotes in vitro): 12 µM; EC50 [2, 3]: 6.8 µM

Q: Which EC50 ([1]; axenic amastigotes in vitro) does the source give for CC(C)OC(=O)Nc1ccc(-c2cnc3nc(-c4cc(NC(=O)Nc5ccc(C(F)(F)F)cc5)ccc4F)oc3c2)cc1 [Compound 396] here?
A: 16.1 µM

Q: And the EC50 [2, 3]?
A: > 50 µM

Q: O=C(Nc1ccc(C(F)(F)F)cc1)Nc1ccc(F)c(-c2nc3ncc(N4CCCCC4)cc3o2)c1 [Compound 397] was tested. Which EC50 ([1]; axenic amastigotes in vitro) did it give?
A: > 25 µM

Q: And the EC50 [2, 3]?
A: > 30 µM

Q: What does the source list for O=C(Nc1ccc(C(F)(F)F)cc1)Nc1ccc(F)c(-c2nc3ncc(-c4ccc(N5CCCCC5)cc4)cc3o2)c1 [Compound 399]?
A: EC50 ([1]; axenic amastigotes in vitro): 15.8 µM; EC50 [2, 3]: 5.9 µM

Q: What does the source list for Nc1ccc(-c2cnc3nc(-c4cc(NC(=O)Nc5ccc(C(F)(F)F)cc5)ccc4F)oc3c2)cn1 [Compound 400]?
A: EC50 ([1]; axenic amastigotes in vitro): 1.62 µM; EC50 [2, 3]: 4 µM

Q: How did the EC50 ([1]; axenic amastigotes in vitro) turn out when CC(=O)Nc1ccc(-c2cnc3nc(-c4cc(NC(=O)Nc5ccc(C(F)(F)F)cc5)ccc4F)oc3c2)cc1 [Compound 401] was run?
A: 4.7 µM

Q: What about the EC50 [2, 3] of the same compound?
A: 3.12 µM

Q: With COC(=O)Nc1ccc(-c2cnc3nc(-c4cc(NC(=O)Nc5ccc(C(F)(F)F)cc5)ccc4F)oc3c2)cc1 [Compound 402] as the compound, how does the EC50 ([1]; axenic amastigotes in vitro) read?
A: > 24 µM

Q: And the EC50 [2, 3]?
A: 10 µM

Q: What does the source list for CN(C)c1ccc(-c2cnc3nc(-c4cc(NC(=O)Nc5ccc(C(F)(F)F)cc5)ccc4F)oc3c2)cn1 [Compound 403]?
A: EC50 ([1]; axenic amastigotes in vitro): 17.4 µM; EC50 [2, 3]: > 50 µM

Q: What does the source list for CCc1noc(C(=O)Nc2ccc(F)c(-c3nc4ncc(Br)cc4o3)c2)n1 [Compound 405]?
A: EC50 ([1]; axenic amastigotes in vitro): > 25 µM; EC50 [2, 3]: > 50 µM

Q: Which results are given for CC(C)c1nnc(C(=O)Nc2ccc(F)c(-c3nc4ncc(Br)cc4o3)c2)o1 [Compound 406]?
A: EC50 ([1]; axenic amastigotes in vitro): > 25 µM; EC50 [2, 3]: > 50 µM

Q: CC(C)(C)c1nnc(C(=O)Nc2ccc(F)c(-c3nc4ncc(Br)cc4o3)c2)o1 [Compound 407] was tested. Which EC50 ([1]; axenic amastigotes in vitro) did it give?
A: > 25 µM

Q: What about the EC50 [2, 3] of the same compound?
A: > 4.2 µM

Q: O=C(Nc1ccc(F)c(-c2nc3ncc(Br)cc3o2)c1)c1cnco1 [Compound 408] was tested. Which EC50 ([1]; axenic amastigotes in vitro) did it give?
A: 3.8 µM

Q: What about the EC50 [2, 3] of the same compound?
A: > 50 µM

Q: How did the EC50 ([1]; axenic amastigotes in vitro) turn out when Cc1ncoc1C(=O)Nc1ccc(F)c(-c2nc3ncc(Br)cc3o2)c1 [Compound 409] was run?
A: 7.5 µM

Q: What about the EC50 [2, 3] of the same compound?
A: > 50 µM

Q: How did the EC50 ([1]; axenic amastigotes in vitro) turn out when O=C(Nc1ccc(F)c(-c2nc3ncc(Br)cc3o2)c1)c1cocn1 [Compound 410] was run?
A: > 25 µM

Q: And the EC50 [2, 3]?
A: > 50 µM

Q: COC(=O)Nc1ccc(-c2cnc3nc(-c4cc(NC(=O)c5ccco5)ccc4F)oc3c2)cc1 [Compound 414] was tested. Which EC50 ([1]; axenic amastigotes in vitro) did it give?
A: 0.2 µM

Q: What about the EC50 [2, 4] of the same compound?
A: 1.17 µM

Q: Which results are given for Cc1cnc2nc(-c3cc(NC(=O)c4ccco4)ccc3Cl)[nH]c2c1 [Example 1, N-(4-chloro-3-{6-methyl-1H-imidazo[4,5-b]pyridin-2-yl}phenyl)furan-2-carboxamide]?
A: EC50 ([1]; axenic amastigotes in vitro): 2.2 µM; EC50 [2, 3]: 9 µM

Q: For O=C(Nc1ccc(Cl)c(-c2nc3ncc(-c4ccc(CCN5CCOCC5)cc4)cc3[nH]2)c1)c1ccco1 [Example 6, N-[4-chloro-3-(6-{4-[2-(morpholin-4-yl)ethyl]phenyl}-1H-imidazo[4,5-b]pyridin-2-yl)phenyl]furan-2-carboxamide], which EC50 ([1]; axenic amastigotes in vitro) is on record?
A: 1.96 µM

Q: What about the EC50 [2, 3] of the same compound?
A: 0.65 µM

Q: Which EC50 ([1]; axenic amastigotes in vitro) does the source give for C=Cc1cnc2nc(-c3cc(NC(=O)c4ccco4)ccc3Cl)[nH]c2c1 [Example 74, N-(4-chloro-3-{6-ethenyl-1H-imidazo[4,5-b]pyridin-2-yl}phenyl)furan-2-carboxamide] here?
A: 0.45 µM

Q: What about the EC50 [2, 3] of the same compound?
A: 3.09 µM

Q: How did the EC50 ([1]; axenic amastigotes in vitro) turn out when CCCc1cnc2nc(-c3cc(NC(=O)c4ccco4)ccc3Cl)[nH]c2c1 [Example 75, N-(4-chloro-3-{6-propyl-1H-imidazo[4,5-b]pyridin-2-yl}phenyl)furan-2-carboxamide] was run?
A: 9.3 µM

Q: What about the EC50 [2, 3] of the same compound?
A: 25.6 µM

Q: For O=C(Nc1ccc(Cl)c(-c2nc3ncc(C(F)(F)F)cc3[nH]2)c1)c1ccco1 [Example 276, N-{4-Chloro-3-[6-(trifluoromethyl)-1H-imidazo[4,5-b]pyridin-2-yl]phenyl}furan-2-carboxamide], which EC50 ([1]; axenic amastigotes in vitro) is on record?
A: 1.56 µM

Q: And the EC50 [2, 3]?
A: 6 µM

Q: What does the source list for CC(C)OC(=O)Nc1ccc(Cl)c(-c2nc3ncc(C#N)cc3[nH]2)c1 [Example 287, Propan-2-yl N-(4-chloro-3-{6-cyano-1H-imidazo[4,5-b]pyridin-2-yl}phenyl)carbamate]?
A: EC50 ([1]; axenic amastigotes in vitro): 1.44 µM; EC50 ([2]; 120 h, L. donovani in mouse peritoneal macrophages, 5 days culture, SybrGreen parasite nuclei count, read-out: EC50): ~0.08 µM; EC50 [2, 3]: 0.078 µM

Q: How did the EC50 ([1]; axenic amastigotes in vitro) turn out when O=C(Nc1ccc(F)c(-c2nc3ncc(-c4ccccc4)cc3[nH]2)c1)N1CCCC1 [Example 309, N-(4-fluoro-3-{6-phenyl-1H-imidazo[4,5-b]pyridin-2-yl}phenyl)pyrrolidine-1-carboxamide] was run?
A: 1.97 µM

Q: What about the EC50 [2, 3] of the same compound?
A: 4.5 µM

Q: Which results are given for CC(C)OC(=O)Nc1ccc(Cl)c(-c2nc3ncc(-c4ccccc4)cc3[nH]2)c1 [Example 333, Propan-2-yl N-(4-chloro-3-{6-phenyl-1H-imidazo[4,5-b]pyridin-2-yl}phenyl)carbamate]?
A: EC50 ([1]; axenic amastigotes in vitro): 0.66 µM; EC50 [2, 3]: 0.048 µM

Q: For COC(=O)Nc1ccc(-c2cnc3nc(-c4cc(NC(=O)N5CCC(F)(F)C5)ccc4Cl)[nH]c3c2)cc1 [Example 343, Methyl N-[4-(2-{2-chloro-5-[(3,3-difluoropyrrolidin-1-yl)carbonylamino]phenyl}-1H-imidazo [4,5-b]pyridin-6-yl)phenyl]carbamate], which EC50 [1] is on record?
A: 0.245 µM

Q: What about the EC50 [2, 3] of the same compound?
A: 0.51 µM

Q: Which EC50 ([1]; axenic amastigotes in vitro) does the source give for O=C(Nc1ccc(F)c(-c2nc3ncc(Cl)cc3[nH]2)c1)c1ccco1 [Example 357, N-(3-{6-chloro-1H-imidazo[4,5-b]pyridin-2-yl}-4-fluorophenyl)furan-2-carboxamide] here?
A: 0.6 µM

Q: And the EC50 [2, 3]?
A: 2.51 µM

Q: Which EC50 ([1]; axenic amastigotes in vitro) does the source give for CN(C)Cc1ccc(C(=O)Nc2ccc(Cl)c(-c3nc4ncc(Br)cc4[nH]3)c2)o1 [Example 372, N-(3-{6-bromo-1H-imidazo[4,5-b]pyridin-2-yl}-4-chlorophenyl)-5-[(dimethylamino)methyl]furan-2-carboxamide] here?
A: > 25 µM

Q: And the EC50 [2, 3]?
A: 2.52 µM

Q: With Cc1ccc(C(=O)Nc2ccc(F)c(-c3nc4ncc(-c5ccccc5)cc4[nH]3)c2)o1 [Example 380, N-(4-fluoro-3-{6-phenyl-1H-imidazo[4,5-b]pyridin-2-yl}phenyl)-5-methylfuran-2-carboxamide] as the compound, how does the EC50 ([1]; axenic amastigotes in vitro) read?
A: 5.7 µM

Q: And the EC50 [2, 3]?
A: 3.3 µM

Q: For Cc1ccc(C(=O)Nc2ccc(F)c(-c3nc4ncc(-c5ccsc5)cc4[nH]3)c2)o1 [Example 381, N-{4-fluoro-3-[6-(thiophen-3-yl)-1H-imidazo[4,5-b]pyridin-2-yl]phenyl}-5-methylfuran-2-carboxamide], which EC50 ([1]; axenic amastigotes in vitro) is on record?
A: 2.5 µM

Q: What about the EC50 [2, 3] of the same compound?
A: 1.6 µM

Q: For COCn1c(-c2cc(NC(=O)N3CCCC3)ccc2Cl)nc2cc(Br)cnc21 [Example 385, N-{3-[6-bromo-3-(methoxymethyl)-3H-imidazo[4,5-b]pyridin-2-yl]-4-chlorophenyl}pyrrolidine-1-carboxamide], which EC50 [1] is on record?
A: > 23.2 µM

Q: And the EC50 [2, 3]?
A: > 10.9 µM

Q: How did the EC50 ([1]; axenic amastigotes in vitro) turn out when COCn1c(-c2cc(NC(=O)N3CCCC3)ccc2Cl)nc2ncc(Br)cc21 [Example 386] was run?
A: 4.3 µM

Q: What about the EC50 [2, 3] of the same compound?
A: 4.3 µM

Q: Which results are given for O=C(Nc1ccc(C(F)(F)F)cc1)Nc1ccc(F)c(-c2nc3ncc(-c4ccc(CCN5CCOCC5)cc4)cc3o2)c1 [Example 389, 3-[4-Fluoro-3-(6-{4-[2-(morpholin-4-yl)ethyl]phenyl}-[3]oxazolo[4,5-b]pyridin-2-yl)phenyl]-1-[4-(trifluoromethyl)phenyl]urea]?
A: EC50 ([1]; axenic amastigotes in vitro): 11.6 µM; EC50 [2, 3]: 11.4 µM

Q: With CCc1nnc(C(=O)Nc2ccc(F)c(-c3nc4ncc(Br)cc4o3)c2)o1 [Example 404, N-(3-{6-bromo-[1,3]oxazolo[4,5-b]pyridin-2-yl}-4-fluorophenyl)-5-ethyl-1,3,4-oxadiazole-2-carboxamide] as the compound, how does the EC50 ([1]; axenic amastigotes in vitro) read?
A: > 25 µM

Q: And the EC50 [2, 3]?
A: > 50 µM

Q: How did the EC50 ([1]; axenic amastigotes in vitro) turn out when O=C(Nc1ccc(F)c(-c2nc3ncc(-c4ccccc4)cc3o2)c1)N1CCCC1 [Example 415, N-(4-fluoro-3-{6-phenyl-[1,3]oxazolo[4,5-b]pyridin-2-yl}phenyl)pyrrolidine-1-carboxamide] was run?
A: 0.4 µM

Q: And the EC50 [2, 4]?
A: 0.1 µM

Q: Which results are given for O=C(Nc1ccc(Cl)c(-c2nc3ncc(-c4ccccc4)cc3o2)c1)c1ccco1 [Example 416, N-(4-chloro-3-{6-phenyl-[1,3]oxazolo[4,5-b]pyridin-2-yl}phenyl)-furan-2-carboxamide]?
A: EC50 ([1]; axenic amastigotes in vitro): 1.52 µM; EC50 [2, 4]: 2.9 µM

Q: Cc1cnc2nc(-c3cc(NC(=O)c4ccco4)ccc3Cl)oc2c1 [Example 418, N-(4-chloro-3-{6-methyl-[1,3]oxazolo[4,5-b]pyridin-2-yl}phenyl)-furan-2-carboxamide] was tested. Which EC50 ([1]; axenic amastigotes in vitro) did it give?
A: 1.51 µM

Q: What about the EC50 [2, 4] of the same compound?
A: 8.4 µM

Q: How did the EC50 ([1]; axenic amastigotes in vitro) turn out when CCc1cnc2nc(-c3cc(NC(=O)c4ccco4)ccc3Cl)oc2c1 [Example 419, N-(4-chloro-3-{6-ethyl-[1,3]oxazolo[4,5-b]pyridin-2-yl}phenyl)-furan-2-carboxamide] was run?
A: 0.36 µM

Q: And the EC50 [2, 4]?
A: 2.46 µM

Q: Which EC50 ([1]; axenic amastigotes in vitro) does the source give for CN(C)c1ccc(F)c(-c2nc3ncc(-c4ccc(OCCN5CCOCC5)cc4)cc3o2)c1 [Example 420, 4-Fluoro-N,N-dimethyl-3-(6-{4-[2-(morpholin-4-yl)ethoxy]phenyl}-[1,3]oxazolo[4,5-b]pyridin-2-yl)aniline] here?
A: > 25 µM

Q: And the EC50 [2, 4]?
A: > 50 µM

Q: With CNc1ccc(F)c(-c2nc3ncc(-c4ccc(OCCN5CCOCC5)cc4)cc3o2)c1 [Example 421, 4-Fluoro-N-methyl-3-(6-{4-[2-(morpholin-4-yl)ethoxy]phenyl}-[1,3]oxazolo[4,5-b]pyridin-2-yl)aniline] as the compound, how does the EC50 ([1]; axenic amastigotes in vitro) read?
A: > 25 µM

Q: What about the EC50 [2, 4] of the same compound?
A: > 50 µM

— patent US9233961B2, “Compounds and compositions for the treatment of parasitic diseases” (Novartis AG, priority 2013, dated 2016)
